Counter-ions that a name gives are not always drawn.

T1 sequence (P9WHT9 58-291): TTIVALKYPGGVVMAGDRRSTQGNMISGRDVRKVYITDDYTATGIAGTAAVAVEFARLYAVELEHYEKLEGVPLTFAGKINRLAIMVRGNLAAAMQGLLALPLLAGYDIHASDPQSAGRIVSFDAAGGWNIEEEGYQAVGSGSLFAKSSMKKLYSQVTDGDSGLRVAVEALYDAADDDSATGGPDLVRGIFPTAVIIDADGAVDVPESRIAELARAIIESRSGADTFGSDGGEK
T1 sequence (P9WHU1 whole entry partner): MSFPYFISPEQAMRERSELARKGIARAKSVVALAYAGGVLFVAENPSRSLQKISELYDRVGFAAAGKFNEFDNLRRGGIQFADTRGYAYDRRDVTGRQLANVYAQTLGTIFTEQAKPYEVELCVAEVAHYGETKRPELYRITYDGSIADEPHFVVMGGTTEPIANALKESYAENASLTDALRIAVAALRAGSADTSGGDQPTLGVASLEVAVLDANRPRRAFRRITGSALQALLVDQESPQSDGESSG

One assay has as its target T1, Mtb proteasome (Mycobacterium tuberculosis, UniProt P9WHT9).
T1 construct: Proteasome activity of the supernatants was assessed; endogenous in cells; host or cells: Mycobacterium tuberculosis H37Ra (crude lysate supernatant)
Briefly: biochemical.
Settings: not given
As for `COc1c(O)cc2oc(-c3ccc(O)cc3)cc(=O)c2c1O` [hispidulin], it took 58.3 µM to reach half-maximal inhibition (IC50). With `CC(C)(O)[C@H]1CC[C@@](C)([C@H]2[C@@H](O)C[C@@]3(C)[C@@H]4C[C@H](O[C@@H]5O[C@H](CO)[C@@H](O)[C@H](O)[C@H]5O)[C@H]5C(C)(C)[C@@H](O[C@@H]6OC[C@@H](O)[C@H](O)[C@H]6O)CC[C@@]56C[C@@]46CC[C@]23C)O1` [astragaloside A], the “IA: inhibitory activity of Mtb proteasome” value (“IA: inhibitory activity” below) is 23.59%.

In the case of `O=C(O[C@@H]1Cc2c(O)cc(O)cc2O[C@@H]1c1cc(O)c(O)c(O)c1)c1cc(O)c(O)c(O)c1` [epigallocatechin gallate], the “IA: inhibitory activity” value worked out at 45.21%.

`CC1=C(O)C(=O)C=C2C1=CC=C1[C@@]2(C)CC[C@@]2(C)[C@@H]3C[C@](C)(C(=O)O)CC[C@]3(C)CC[C@]12C` [tripterine] showed an IC50 of 114 µM. As to `COc1c(O)cc2oc3cc(O)c(CC=C(C)C)c(O)c3c(=O)c2c1CC=C(C)C` [alpha mangostin], the “IA: inhibitory activity” value is given as 64.16%. Take `COc1ccc(-c2oc3c(CC=C(C)C)c(O[C@@H]4O[C@H](CO)[C@@H](O)[C@H](O)[C@H]4O)cc(O)c3c(=O)c2O[C@@H]2O[C@@H](C)[C@H](O)[C@@H](O)[C@H]2O)cc1` [icarrin, icariin]: it took 88.7 µM to reach half-maximal inhibition (IC50). In the case of `COc1ccc(-c2cc(=O)c3c(O)c(OC)c(O[C@@H]4O[C@H](CO[C@@H]5O[C@@H](C)[C@H](O)[C@@H](O)[C@H]5O)[C@@H](O)[C@H](O)[C@H]4O)cc3o2)cc1` [pectolinarin], the IC50 is 50 µM. As to `COc1ccc([C@H]2OC[C@H]3[C@@H]2CO[C@H]3c2ccc(O[C@@H]3O[C@H](CO)[C@@H](O)[C@H](O)[C@H]3O)c(OC)c2)cc1OC` [forsythin], the “IA: inhibitory activity” value is 20.02%. Consider `O=c1oc2c(O)c(O)cc3c(=O)oc4c(O)c(O)cc1c4c23` [gallogen], for which the “IA: inhibitory activity” value was found to be 62.50%. On the same count and under the same terms, the same measure for `COc1cc2c(c(OC)c1OC)-c1c(cc(OC)c(OC)c1OC)C[C@H](C)[C@H](C)C2` [deoxyschizandrin]: 23.86%; for evodine: 31.77%. On to `O=C(O)[C@H]1O[C@@H](Oc2cc3oc(-c4ccccc4)cc(=O)c3c(O)c2O)[C@H](O)[C@@H](O)[C@@H]1O` [baicalin], for which half-maximal inhibition (IC50) required 83.5 µM.

For dipsacoside, the “IA: inhibitory activity” value was 0.00%. On the same count and under the same terms, under tubeimoside A stands 0.00%. Take `Cc1cc(O)c2c(c1)C(=O)c1cc(O)cc(O)c1C2=O` [emodin]: the IC50 came out at 81.1 µM. The same measure, in the same setting: the same measure for `O=C(/C=C/c1ccc(O)cc1)c1ccc(O)cc1O` [isoliquiritigenin]: 63.9 µM; for `O=c1c(O)c(-c2cc(O)c(O)c(O)c2)oc2cc(O)cc(O)c12` [myricetin]: 55.4 µM.

madecassoside: the “IA: inhibitory activity” value was determined as 0.00%. As to `C[C@H]1CC[C@@H]2N(C1)C[C@H]1[C@@H]3C[C@H]4[C@@H](C[C@H](O)[C@H]5C[C@@H](O)CC[C@@]54C)[C@@H]3CC[C@@H]1[C@]2(C)O` [peimine], the “IA: inhibitory activity” value is 3.05%. The same measure, in the same setting: under `C/C=C(/C)C(=O)O[C@H]1[C@@H](OC(C)=O)c2c(ccc3ccc(=O)oc23)OC1(C)C` [praeruptorin A] stands 0.00%.

Still in this assay, the particulars now being: 0.5 h, read-out: IA: inhibitory activity of Mtb proteasome.
Consider `COC(=O)C1=CO[C@@H](O[C@@H]2O[C@H](CO)[C@@H](O)[C@H](O)[C@H]2O)[C@@H]2C(CO)=CC[C@H]12` [geniposide], for which the inhibition at 200 µM amounted to 0%. As to `O=c1ccc2ccc(O)cc2o1` [umbelliferone], the inhibition at 200 µM worked out at 0%. `CC(C)(C)[C@]1(O)CC2OC(=O)CC23C(=O)OC2OC(=O)[C@H](O)C231` (stereo partly shown) [bilobalide]: the inhibition at 200 µM worked out at 18.6%. Still for that read-out and setting: the same measure for `COc1cc(C(=O)O)cc(OC)c1O` [syringic acid]: 0%; for `O=C1Nc2ccccc2/C1=C1/Nc2ccccc2C1=O` [indirubin]: 46%; for `COc1c(O)cc2oc(-c3ccc(O)cc3)cc(=O)c2c1O` [hispidulin]: above 65%.

`C=C1C(=O)O[C@@H]2/C=C(\C)CC/C=C(\C)CC[C@@H]12` [costunolide]: the inhibition at 200 µM was 41.8%. Still for that read-out and setting: the same measure for `C=C1CC[C@@H]2[C@](C)(CO)[C@H](O)CC[C@@]2(C)[C@@H]1C/C=C1/C(=O)OC[C@H]1O` [andrographolide]: 0%; for `C[C@@H]1CC[C@@]2(OC1)O[C@H]1C[C@H]3[C@@H]4CC=C5C[C@@H](O)CC[C@]5(C)[C@H]4CC[C@]3(C)[C@H]1[C@@H]2C` [diosgenin]: 0%; for `CC1=C(O)C(=O)C=C2C1=CC=C1[C@@]2(C)CC[C@@]2(C)[C@@H]3C[C@](C)(C(=O)O)CC[C@]3(C)CC[C@]12C` [tripterine]: above 65%. As for `COc1c(O)cc2c(c1O)[C@@H]1O[C@H](CO)[C@@H](O)[C@H](O)[C@H]1OC2=O` [bergenin], the inhibition at 200 µM worked out at 3.67%. The same measure, in the same setting: the same measure for `O=c1ccc2ccccc2o1` [coumarin]: 0%; for `OC[C@H]1O[C@@H](Oc2cc(O)cc(/C=C/c3ccc(O)cc3)c2)[C@H](O)[C@@H](O)[C@@H]1O` [polydatin]: 0%; for `CC[C@@]1(O)C(=O)OCc2c1cc1n(c2=O)Cc2cc3ccccc3nc2-1` [camptothecin]: 0%.

For the compound `COc1c(O[C@@H]2O[C@H](CO)[C@@H](O)[C@H](O)[C@H]2O)cc2occ(-c3ccc(O)cc3)c(=O)c2c1O` [tectoridin], the inhibition at 200 µM stood at 0%. As to `CC1(C)[C@@H](O)CC[C@]2(C)[C@H]3C(=O)C=C4[C@@H]5C[C@@](C)(C(=O)O)CC[C@]5(C)CC[C@@]4(C)[C@]3(C)CC[C@@H]12` [glycyrrhetinic Acid], the inhibition at 200 µM came to 0%. The same measure, in the same setting: under `COc1ccc(-c2oc3c(CC=C(C)C)c(O[C@@H]4O[C@H](CO)[C@@H](O)[C@H](O)[C@H]4O)cc(O)c3c(=O)c2O[C@@H]2O[C@@H](C)[C@H](O)[C@@H](O)[C@H]2O)cc1` [icarrin, icariin] stands above 65%; under `COc1c(O)cc(O)c2c(=O)cc(-c3ccccc3)oc12` [wogonin], 54%. With `COc1cc(C[C@H]2C(=O)OC[C@@H]2Cc2ccc(OC)c(OC)c2)ccc1O` [arctigenin], the inhibition at 200 µM is 27.1%.

Take `COc1ccc2cc1Oc1ccc(cc1)C[C@H]1c3c(cc4c(c3Oc3cc5c(cc3OC)CCN(C)[C@@H]5C2)OCO4)CCN1C` [cepharanthine]: the inhibition at 200 µM came out at 0%. Same read-out and setting: the same measure for `COc1ccc(-c2cc(=O)c3c(O)c(OC)c(O)c(OC)c3o2)cc1` [nevadensin]: 48%; for `COc1ccc(C(C)=O)c(O)c1` [paeonol]: 0%. The same measure, in the same setting: the same measure for `COC1=C[C@@H]2[C@@H]3Cc4ccc(OC)c(O)c4[C@]2(CCN3C)CC1=O` [sinomenine]: 3.77%; for `O[C@H]1[C@H]2c3cc4c(cc3CN3CCC(=C[C@@H]1O)[C@H]23)OCO4` [lycorine hydrochloride]: 0%; for `O=C1CCC[C@@H]2[C@H]3CCCN4CCC[C@@H](CN12)[C@@H]34` [matrine]: 23.5%. Still for that read-out and setting: the same measure for `CC(=O)O[C@H]1C(=O)[C@@]2(C)[C@H]([C@H](OC(=O)c3ccccc3)[C@]3(O)C[C@H](OC(=O)[C@H](O)[C@@H](NC(=O)c4ccccc4)c4ccccc4)C(C)=C1C3(C)C)[C@]1(OC(C)=O)CO[C@@H]1C[C@@H]2O` [paclitaxel, reference compound]: 0%. On to `COc1ccc2cc3[n+](cc2c1OC)CCc1cc2c(cc1-3)OCO2` [berberine], for which the inhibition at 200 µM amounted to 0%. The same measure, in the same setting: the same measure for `C=CCc1ccc(O)c(-c2cc(CC=C)ccc2O)c1` [magnolol]: 0%.

On to `CC(=O)OC(C)(C)CCC(=O)[C@](C)(O)[C@H]1[C@H](O)C[C@@]2(C)[C@@H]3CC=C4[C@@H](C[C@H](O)[C@@H](O)C4(C)C)[C@]3(C)C(=O)C[C@]12C` [hemslecin A], for which the inhibition at 200 µM was determined as 0%.

In the case of `OCc1ccccc1O[C@@H]1O[C@H](CO)[C@@H](O)[C@H](O)[C@H]1O` [salicin], the inhibition at 200 µM was 0%.

On to `C=C1CC[C@H]2C(=C)CC[C@H]3C(=C)C(=O)O[C@@H]3[C@@H]12` [dehydrocostuslactone], for which the inhibition at 200 µM was 32.1%. As for `C[C@H]1[C@H](OC(=O)CCC(=O)O)O[C@@H]2O[C@@]3(C)CC[C@H]4[C@H](C)CC[C@@H]1[C@@]24OO3` [artesunate, reference compound], the inhibition at 200 µM was 13.8%. As for `N#C[C@H](O[C@@H]1O[C@H](CO[C@@H]2O[C@H](CO)[C@@H](O)[C@H](O)[C@H]2O)[C@@H](O)[C@H](O)[C@H]1O)c1ccccc1` [amygdalin], the inhibition at 200 µM stood at 1.87%.

`C[C@H]1CC[C@@]2(OC1)O[C@H]1C[C@H]3[C@@H]4CC[C@@H]5C[C@@H](O)CC[C@]5(C)[C@H]4CC[C@]3(C)[C@H]1[C@@H]2C` [sarsasapogenin]: the inhibition at 200 µM was found to be 0%.

In the case of `Oc1ccc(/C=C/c2cc(O)cc(O)c2)cc1` [resveratrol], the inhibition at 200 µM came out at 0%. On the same count and under the same terms, under `O=C1c2ccccc2C(=O)c2c1ccc(O)c2O` [alizarin] stands 0%; under `O=c1c2cc(O)c(O)cc2oc2cc(O)c([C@@H]3O[C@H](CO)[C@@H](O)[C@H](O)[C@H]3O)c(O)c12` [mangiferin], 31.9%.

Turning to `O=c1cc(-c2ccc(O)c(O)c2)oc2cc(O)cc(O)c12` [luteolin], the inhibition at 200 µM came out at 0%. On the same count and under the same terms, under `O=C(O)[C@H]1O[C@@H](Oc2cc3oc(-c4ccccc4)cc(=O)c3c(O)c2O)[C@H](O)[C@@H](O)[C@@H]1O` [baicalin] stands above 65%; under `COc1cc(/C=C/C(=O)CC(=O)/C=C/c2ccc(O)c(OC)c2)ccc1O` [curcumin], above 65%. `COc1ccc(-c2cc(=O)c3c(O)cc(O)cc3o2)cc1O` [diosmetin]: the inhibition at 200 µM came to 0%. On the same count and under the same terms, the same measure for `Cc1cc(O)c2c(c1)C(=O)c1cc(O)cc(O)c1C2=O` [emodin]: above 65%. The same measure, in the same setting: under `O=C(/C=C/c1ccc(O)cc1)c1ccc(O)cc1O` [isoliquiritigenin] stands above 65%; under `O=c1c(O)c(-c2cc(O)c(O)c(O)c2)oc2cc(O)cc(O)c12` [myricetin], above 65%.

On to `O=c1cc(-c2ccc(O)cc2)oc2cc(O)cc(O)c12` [apigenin], for which the inhibition at 200 µM turned out to be 0%.

With `O=C(/C=C/c1ccc(O)c(O)c1)O[C@@H]1C[C@](O)(C(=O)O)C[C@@H](O)[C@H]1O` [chlorogenic acid], the inhibition at 200 µM came out at 0%. Same read-out and setting: under `COc1ccc2ccc(=O)oc2c1CC=C(C)C` [osthole] stands 0%; under `O=c1c(-c2ccc(O)cc2)coc2cc(O)ccc12` [daidzein], 0%; under `O=c1ccc2ccc(O)c(O)c2o1` [daphnetin], 0%. Take `COc1cc2ccc(=O)oc2cc1OC` [scoparone]: the inhibition at 200 µM was 0%.

Values taken from PMC4203866, “Identification of plant-derived natural products as potential inhibitors of the Mycobacterium tuberculosis proteasome” (BMC Complementary and Alternative Medicine, 2014).
